These results are taken from patent publication US11485742B2, “2-azaspiro[3.4]octane derivatives as M4 agonists” (NOVARTIS AG, priority 2019, dated 2022).

The term EC50 denotes the concentration giving half of the maximal effect.

For this test, the target named is T1, human cloned CHRM5 receptor (Homo sapiens, UniProt P08912).
T1 construct: expressed in transfected cells; host or cells: CHO (M5_CHO)
T1 sequence (P08912 1-532): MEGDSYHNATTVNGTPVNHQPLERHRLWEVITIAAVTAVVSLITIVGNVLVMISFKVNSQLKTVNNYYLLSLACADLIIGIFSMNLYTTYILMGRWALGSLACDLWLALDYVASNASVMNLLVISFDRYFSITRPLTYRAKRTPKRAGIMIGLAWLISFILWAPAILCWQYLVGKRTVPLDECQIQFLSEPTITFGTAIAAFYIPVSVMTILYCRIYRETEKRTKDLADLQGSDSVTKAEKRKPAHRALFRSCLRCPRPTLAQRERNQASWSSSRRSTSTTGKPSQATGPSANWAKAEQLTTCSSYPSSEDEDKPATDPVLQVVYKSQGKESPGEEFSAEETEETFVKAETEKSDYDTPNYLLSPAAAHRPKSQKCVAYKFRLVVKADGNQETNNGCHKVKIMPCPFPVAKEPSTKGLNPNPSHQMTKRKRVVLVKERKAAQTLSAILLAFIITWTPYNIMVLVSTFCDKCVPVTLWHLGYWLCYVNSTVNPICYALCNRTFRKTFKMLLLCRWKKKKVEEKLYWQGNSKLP
Put plainly: CHRM5 Ca++ Flux Assay (M5_CHO cells, agonist mode). It is filed as cell-based. The settings on record: for Emax: Percent Activity (PA) measured to EC100 of Carbachol, read-out: M5 FDSS PA %; for EC50: agonist mode, geometric mean if tested more than once, read-out: M5 FDSS EC50. The gist of the method:
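CHO-K1 cells stably expressing human M3 or M5 receptor, dye-loaded ≥1 h, treated with 11-point compound doses in triplicate; Ca++ flux read over 3 min (FDSS). Agonist-mode four-parameter fit; percent activity relative to carbachol EC100; repeat tests reported as geometric mean.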

Bounds are passed on as bounds.

As to `CC(C)(O)CCOc1ccc(F)cc1C1CCN([C@@H]2COC3(C2)CN(c2nnco2)C3)CC1` [Example 1N, (S)-4-(2-(1-(2-(1,3,4-oxadiazol-2-yl)-5-oxa-2-azaspiro[3.4]octan-7-yl)piperidin-4-yl)-4-fluorophenoxy)-2-methylbutan-2-ol], the Emax was 0% and the EC50 was > 25 µM.
The corresponding values for `CCC1(COc2ccc(F)cc2C2CCN([C@@H]3COC4(C3)CN(c3nnco3)C4)CC2)COC1` [Example 2P, (S)-7-(4-(2-((3-ethyloxetan-3-yl)methoxy)-5-fluorophenyl)piperidin-1-yl)-2-(1,3,4-oxadiazol-2-yl)-5-oxa-2-azaspiro[3.4]octane] are 0% and > 25 µM.
Turning to `Fc1ccc(OC2CC3(COC3)C2)c(C2CCN([C@@H]3COC4(C3)CN(c3ncon3)C4)CC2)c1` [Example 6C, (S)-7-(4-(2-((2-oxaspiro[3.3]heptan-6-yl)oxy)-5-fluorophenyl)piperidin-1-yl)-2-(1,2,4-oxadiazol-3-yl)-5-oxa-2-azaspiro[3.4]octane], the Emax worked out at 0% and the 50% effective concentration (EC50) is > 25 µM.
Take `Cc1nnc(-c2ccccc2C2CCN([C@@H]3COC4(C3)CN(c3nnco3)C4)CC2)o1` [Example 1Y, (S)-7-(4-(2-(5-methyl-1,3,4-oxadiazol-2-yl)phenyl)piperidin-1-yl)-2-(1,3,4-oxadiazol-2-yl)-5-oxa-2-azaspiro[3.4]octane]: the Emax turned out to be 0% and the 50% effective concentration (EC50) was > 25 µM.
The corresponding values for `Fc1ccc(OCC2COC2)c(C2CCN([C@@H]3COC4(C3)CN(c3nnco3)C4)CC2)c1` [Example 2H, (S)-7-(4-(5-fluoro-2-(oxetan-3-ylmethoxy)phenyl)piperidin-1-yl)-2-(1,3,4-oxadiazol-2-yl)-5-oxa-2-azaspiro[3.4]octane] are 0% and > 25 µM.
Regarding `OC1(COc2ccc(F)cc2C2CCN([C@@H]3COC4(C3)CN(c3nnco3)C4)CC2)COC1` [Example 2U, (S)-3-((2-(1-(2-(1,3,4-oxadiazol-2-yl)-5-oxa-2-azaspiro[3.4]octan-7-yl)piperidin-4-yl)-4-fluorophenoxy)methyl)oxetan-3-ol], the Emax amounted to 0% and the EC50 was > 25 µM.
For the molecule `Fc1ccc(OC2CC3(COC3)C2)c(C2CCN([C@@H]3COC4(C3)CN(c3nncs3)C4)CC2)c1` [Example 5W, (S)-7-(4-(2-((2-oxaspiro[3.3]heptan-6-yl)oxy)-5-fluorophenyl)piperidin-1-yl)-2-(1,3,4-thiadiazol-2-yl)-5-oxa-2-azaspiro[3.4]octane], the Emax was 0% and the EC50 is > 25 µM.
The like results for `CC1(COc2ccc(F)cc2C2CCN([C@@H]3COC4(C3)CN(c3nnco3)C4)CC2)COC1` [Example 2K, (S)-7-(4-(5-fluoro-2-((3-methyloxetan-3-yl)methoxy)phenyl)piperidin-1-yl)-2-(1,3,4-oxadiazol-2-yl)-5-oxa-2-azaspiro[3.4]octane] were, in that order, 0% and > 25 µM.
The corresponding values for `Fc1ccc(OC[C@H]2CCOC2)c(C2CCN([C@@H]3COC4(C3)CN(c3nnco3)C4)CC2)c1` [Example 1I, (S)-7-(4-(5-fluoro-2-(((S)-tetrahydrofuran-3-yl)methoxy)phenyl)piperidin-1-yl)-2-(1,3,4-oxadiazol-2-yl)-5-oxa-2-azaspiro[3.4]octane] are 0% and > 25 µM.
In the case of `Fc1ccc(OCC2COC2)c(C2CCN([C@@H]3COC4(C3)CN(c3nncs3)C4)CC2)c1` [Example 2A, (S)-7-(4-(5-fluoro-2-(oxetan-3-ylmethoxy)phenyl)piperidin-1-yl)-2-(1,3,4-thiadiazol-2-yl)-5-oxa-2-azaspiro[3.4]octane], the Emax turned out to be 0% and the EC50 was > 25 µM.
